Experimental data published in ChEMBL document CHEMBL5352410, “Discovery of novel selenium-containing azole derivatives as antifungal agents by exploiting the hydrophobic cleft of CYP51” (Eur J Med Chem, 2022).
In brackets after ≈: the same amount, converted by molar mass.

Tests used:
Format in all cases: functional
Candida albicans [1] = test: Antifungal activity against FCZ-resistant Candida albicans 904 by CLSI based broth microdilution method
Candida albicans [2] = test: Antifungal activity against FCZ-resistant Candida albicans 632 by CLSI based broth microdilution method
Candida albicans [3] = test: Antifungal activity against FCZ-resistant Candida albicans 901 by CLSI based broth microdilution method
Candida albicans [4] = test: Antifungal activity against FCZ-resistant Candida albicans CaR by CLSI based broth microdilution method
Candida albicans [5] = test: Antifungal activity against FCZ-resistant Candida albicans 17# by CLSI based broth microdilution method
Candida albicans [6] = test: Fungicidal activity against FCZ-resistant Candida albicans 632
Candida albicans [7] = test: Fungicidal activity against Candida albicans
Candida albicans [8] = test: Fungicidal activity against FCZ-resistant Candida albicans 901
Candida albicans [9] = test: Fungicidal activity against FCZ-resistant Candida albicans CaR
Candida albicans [10] = test: Fungicidal activity against FCZ-resistant Candida albicans 904
Candida albicans [11] = test: Fungicidal activity against Candida albicans sc5314
Candida albicans [12] = test: Fungicidal activity against FCZ-resistant Candida albicans 17#
Candida parapsilosis = test: Antifungal activity against Candida parapsilosis by CLSI based broth microdilution method; settings: Lodderomyces parapsilosis
Nakaseomyces glabratus = test: Antifungal activity against Candida glabrata by CLSI based broth microdilution method
Aspergillus fumigatus = test: Antifungal activity against Aspergillus fumigatus by CLSI based broth microdilution method
Candida albicans [13] = test: Antifungal activity against Candida albicans by CLSI based broth microdilution method
Candida albicans [14] = test: Antifungal activity against Candida albicans sc5314 by CLSI based broth microdilution method
[Candida] zeylanoides = Antifungal activity against Candida zeylanoides by CLSI based broth microdilution method; settings: Dujonia zeylanoides
Pichia kudriavzevii = test: Antifungal activity against Pichia kudriavzevii by CLSI based broth microdilution method
Cryptococcus neoformans = test: Antifungal activity against Cryptococcus neoformans by CLSI based broth microdilution method

Structure (SMILES) | MIC (Candida albicans [1]) [µg/mL] | MIC (Candida albicans [2]) [µg/mL] | MIC (Candida albicans [3]) [µg/mL] | MIC (Candida albicans [4]) [µg/mL] | MIC (Candida albicans [5]) [µg/mL] | MFC (Candida albicans [6]) [µg/mL] | MFC (Candida albicans [7]) [µg/mL] | MFC (Candida albicans [8]) [µg/mL] | MFC (Candida albicans [9]) [µg/mL] | MFC (Candida albicans [10]) [µg/mL] | MFC (Candida albicans [11]) [µg/mL] | MFC (Candida albicans [12]) [µg/mL] | MIC (Candida parapsilosis) [µg/mL] | MIC (Nakaseomyces glabratus) [µg/mL] | MIC (Aspergillus fumigatus) [µg/mL] | MIC (Candida albicans [13]) [µg/mL] | MIC (Candida albicans [14]) [µg/mL] | MIC ([Candida] zeylanoides) [µg/mL] | MIC (Pichia kudriavzevii) [µg/mL] | MIC (Cryptococcus neoformans) [µg/mL]
Fc1ccc(C(Cn2cnnn2)[Se][Se]C(Cn2cnnn2)c2ccc(F)cc2F)c(F)c1 (centres undefined) | > 64 | > 64 | > 64 | > 64 | 64 (≈ 111 µM) | – | – | – | – | – | – | – | – | – | – | – | – | – | – | –
Fc1ccc(C(Cn2ccnc2)[Se][Se]C(Cn2ccnc2)c2ccc(F)cc2F)c(F)c1 (centres undefined) | 8 (≈ 14 µM) | 8 (≈ 14 µM) | 4 (≈ 6.99 µM) | 4 (≈ 6.99 µM) | 8 (≈ 14 µM) | 16 (≈ 28 µM) | 32 (≈ 55.9 µM) | 8 (≈ 14 µM) | > 64 | 8 (≈ 14 µM) | 16 (≈ 28 µM) | > 64 | – | – | – | – | – | – | – | –
c1ccc(C(Cn2ccnc2)[Se][Se]C(Cn2ccnc2)c2ccccc2)cc1 (centres undefined) | 8 (≈ 16 µM) | 8 (≈ 16 µM) | 4 (≈ 7.99 µM) | 2 (≈ 4 µM) | > 64 | 16 (≈ 32 µM) | 64 (≈ 128 µM) | 8 (≈ 16 µM) | > 64 | 8 (≈ 16 µM) | 16 (≈ 32 µM) | > 64 | – | – | – | – | – | – | – | –
Fc1ccc(C(Cn2cncn2)[Se]C(Cn2cncn2)c2ccc(F)cc2F)c(F)c1 (centres undefined) | 16 (≈ 32.3 µM) | 32 (≈ 64.6 µM) | 16 (≈ 32.3 µM) | 32 (≈ 64.6 µM) | 8 (≈ 16.2 µM) | – | – | – | – | – | – | – | > 64 | > 64 | > 64 | 64 (≈ 129 µM) | 4 (≈ 8.08 µM) | 8 (≈ 16.2 µM) | > 64 | 4 (≈ 8.08 µM)
Fc1ccc(C(Cn2ccnn2)[Se]C(Cn2ccnn2)c2ccc(F)cc2)cc1 (centres undefined) | > 64 | > 64 | > 64 | > 64 | > 64 | – | – | – | – | – | – | – | > 64 | 8 (≈ 17.4 µM) | > 64 | > 64 | > 64 | 64 (≈ 139 µM) | 64 (≈ 139 µM) | > 64
CCC(C)n1ncn(-c2ccc(N3CCN(c4ccc(OCC5COC(Cn6cncn6)(c6ccc(Cl)cc6Cl)O5)cc4)CC3)cc2)c1=O (centres undefined) [ITRACONAZOLE] | > 64 | > 64 | > 64 | 8 (≈ 11.3 µM) | > 64 | – | – | – | – | – | – | – | – | – | – | – | – | – | – | –
Clc1ccc(C(Cn2cnnn2)[Se]C(Cn2cnnn2)c2ccc(Cl)cc2Cl)c(Cl)c1 (centres undefined) | > 64 | > 64 | > 64 | > 64 | > 64 | – | – | – | – | – | – | – | > 64 | > 64 | > 64 | > 64 | > 64 | > 64 | > 64 | > 64
c1ccc(C(Cn2ccnc2)[Se]C(Cn2ccnc2)c2ccccc2)cc1 (centres undefined) | 4 (≈ 9.49 µM) | 8 (≈ 19 µM) | 8 (≈ 19 µM) | 4 (≈ 9.49 µM) | 0.5 (≈ 1.19 µM) | 16 (≈ 38 µM) | 64 (≈ 152 µM) | 16 (≈ 38 µM) | > 64 | 8 (≈ 19 µM) | 8 (≈ 19 µM) | > 64 | 4 (≈ 9.49 µM) | 16 (≈ 38 µM) | > 64 | 8 (≈ 19 µM) | 4 (≈ 9.49 µM) | 4 (≈ 9.49 µM) | 16 (≈ 38 µM) | 64 (≈ 152 µM)
Fc1ccc(C(Cn2cnnn2)[Se]C(Cn2cnnn2)c2ccc(F)cc2)cc1 (centres undefined) | > 64 | > 64 | > 64 | > 64 | > 64 | – | – | – | – | – | – | – | > 64 | > 64 | > 64 | > 64 | > 64 | 32 (≈ 69.4 µM) | > 64 | > 64
Clc1ccc(C(Cn2cnnn2)[Se][Se]C(Cn2cnnn2)c2ccc(Cl)cc2Cl)c(Cl)c1 (centres undefined) | > 64 | > 64 | > 64 | 64 (≈ 99.7 µM) | 64 (≈ 99.7 µM) | – | – | – | – | – | – | – | – | – | – | – | – | – | – | –
Fc1ccc(C(Cn2ccnc2)[Se][Se]C(Cn2ccnc2)c2ccc(F)cc2)cc1 (centres undefined) | 64 (≈ 119 µM) | 64 (≈ 119 µM) | 16 (≈ 29.8 µM) | 4 (≈ 7.46 µM) | 32 (≈ 59.7 µM) | > 64 | > 64 | 32 (≈ 59.7 µM) | > 64 | 64 (≈ 119 µM) | > 64 | > 64 | – | – | – | – | – | – | – | –
Fc1ccc(C(Cn2cnnn2)[Se][Se]C(Cn2cnnn2)c2ccc(F)cc2)cc1 (centres undefined) | > 64 | > 64 | > 64 | 16 (≈ 29.6 µM) | 32 (≈ 59.2 µM) | – | – | – | – | – | – | – | – | – | – | – | – | – | – | –
Fc1ccc(C(Cn2cncn2)[Se][Se]C(Cn2cncn2)c2ccc(F)cc2F)c(F)c1 (centres undefined) | 64 (≈ 111 µM) | > 64 | 16 (≈ 27.9 µM) | 16 (≈ 27.9 µM) | 8 (≈ 13.9 µM) | – | – | – | – | – | – | – | – | – | – | – | – | – | – | –
Fc1ccc(C(Cn2cncn2)[Se]C(Cn2cncn2)c2ccc(F)cc2)cc1 (centres undefined) | 64 (≈ 139 µM) | > 64 | > 64 | 64 (≈ 139 µM) | 8 (≈ 17.4 µM) | – | – | – | – | – | – | – | > 64 | 64 (≈ 139 µM) | > 64 | > 64 | 32 (≈ 69.7 µM) | 1 (≈ 2.18 µM) | > 64 | > 64
Fc1ccc(C(Cn2cnnn2)[Se]C(Cn2cnnn2)c2ccc(F)cc2F)c(F)c1 (centres undefined) | > 64 | > 64 | > 64 | > 64 | > 64 | – | – | – | – | – | – | – | > 64 | > 64 | > 64 | > 64 | > 64 | > 64 | > 64 | > 64
